Data published in US10821115B2, “Compounds that inhibit Mcl-1 protein” (priority 2017, dated 2020).

System: human multiple myeloma cell line, OPM-2
Assay: Cell viability assay (OPM-2 10 FBS), CellTiter-Glo
Format: cell-based
Details: Homo sapiens, OPM-2, 16 h, read-out: OPM-2 10% FBS IC50 IP, OPM-2 cells, 10% FBS, 16 h incubation
Protocol: Cell viability assay (OPM-2 10 FBS)
The human multiple myeloma cell line, OPM-2, was cultured in complete growth medium containing RPMI 1640 and 10% fetal bovine serum (FBS). Cells were seeded into 384-well plates at 3000 cells/well density in complete growth medium containing 10% FBS, and incubated for 16 h with serially diluted test compounds in a 37° C. incubator with 5% CO2. Cell viability was tested using CellTiter-Glo® assay (Promega, Madison, Wis.) according to the manufacturer recommendations. Luminescence was determined using an EnVision® Multilabel plate reader 25 min after the addition of detection reagent. IC50 values were then calculated with Xlfit using a logistical 4-parameter fit model in GraphPad Prism (GraphPad Software, San Diego, Calif.) or in Genedata Screener® (Genedata, Basel, Switzerland).

In order of falling IC50:
1. CCO[C@]1(CN2CCN(C3COC3)CC2)/C=C/C[C@H](C)[C@@H](C)S(=O)(=O)NC(=O)c2ccc3c(c2)N(C[C@@H]2CC[C@H]21)C[C@@]1(CCCc2cc(Cl)ccc21)CO3 [Example 2, (1 S,3′R,6′R,7′R,8′E,11′S,12′R)-6-chloro-7′-ethoxy-11′,12′-dimethyl-7′-((4-(3-oxetanyl)-1-piperazinyl)methyl)-3,4-dihydro-2H, 15′H-spiro[naphthalene-1,22′-[20]oxa[13]thia[1,14]diazatetracyclo[14.7.2.0-3,6˜.0˜19,24˜]pentacosa[8,16,18,24]tetraen]-15′-one 13′,13′-dioxide]  76 nM
2. CCO[C@]1(CN2CCN(C(C)(C)C)CC2)/C=C/C[C@H](C)[C@@H](C)S(=O)(=O)NC(=O)c2ccc3c(c2)N(C[C@@H]2CC[C@H]21)C[C@@]1(CCCc2cc(Cl)ccc21)CO3 [Example 6, (1S,3′R,6′R,7′R,8′E,11′S,12′R)-7′-((4-TERT-BUTYL-1-PIPERAZINYL)METHYL)-6-CHLORO-7′-ETHOXY-11′,12′-DIMETHYL-3,4-DIHYDRO-2H,15′H-SPIRO[NAPHTHALENE-1,22′-[20]OXA[13]THIA[1,14]DIAZATETRACYCLO[14.7.2.0-3,6˜.0˜19,24˜]PENT ACOSA[8,16,18,24]TETRAEN]-15′-ONE 13′,13′-DIOXIDE]  76 nM
3. CCO[C@]1(CN2CCN3CCCC[C@@H]3C2)/C=C/C[C@H](C)[C@@H](CCOC)S(=O)(=O)NC(=O)c2ccc3c(c2)N(C[C@@H]2CC[C@H]21)C[C@@]1(CCCc2cc(Cl)ccc21)CO3 [Example 15, (1S,3′R,6′R,7′R,8′E,11′S,12′R)-6-chloro-7′-ethoxy-12′-(2-methoxyethyl)-11′-methyl-7′-((9aR)-octahydro-2H-pyrido[1,2-a]pyrazin-2-ylmethyl)-3,4-dihydro-2H,15′H-spiro[naphthalene-1,22′-[20]oxa[13]thia[1,14]diazatetracyclo[14.7.2.0-3,6˜.0˜19,24˜]pentacosa[8,16,18,24]tetraen]-15′-one 13′,13′-dioxide]  71 nM
4. CCO[C@]1(CN2CCN3CCOC[C@@H]3C2)/C=C/C[C@H](C)[C@@H](CCOC)S(=O)(=O)NC(=O)c2ccc3c(c2)N(C[C@@H]2CC[C@H]21)C[C@@]1(CCCc2cc(Cl)ccc21)CO3 [Example 13, (1 S,3′R,6′R,7′R,8′E,11′S,12′R)-6-chloro-7′-ethoxy-7′-((9aS)-hexahydropyrazino[2,1-c][1,4]oxazin-8(1H)-ylmethyl)-12′-(2-methoxyethyl)-11′-methyl-3,4-dihydro-2H,15′H-spiro[naphthalene-1,22′-[20]oxa[13]thia[1,14]diazatetracyclo[14.7.2.0-3,6˜.0˜19,24˜]pentacosa[8,16,18,24]tetraen]-15′-one 13′,13′-dioxide]  63 nM
5. CCO[C@]1(CN2CCN(C3COC3)CC2)/C=C/C[C@H](C)[C@@H](CCOC)S(=O)(=O)NC(=O)c2ccc3c(c2)N(C[C@@H]2CC[C@H]21)C[C@@]1(CCCc2cc(Cl)ccc21)CO3 [Example 14, (1S,3′R,6′R,7′R,8′E,11′S,12′R)-6-chloro-7′-ethoxy-12′-(2-methoxyethyl)-11′-methyl-7′-((4-(3-oxetanyl)-1-piperazinyl)methyl)-3,4-dihydro-2H,15′H-spiro[naphthalene-1,22′-[20]oxa[13]thia[1,14]diazatetracyclo[14.7.2.0-3,6˜.0˜19,24˜]pentacosa[8,16,18,24]tetraen]-15′-one 13′,13′-dioxide]  59 nM
6. CCO[C@]1(CN2CCN(C(C)C)CC2)/C=C/C[C@H](C)[C@@H](CCOC)S(=O)(=O)NC(=O)c2ccc3c(c2)N(C[C@@H]2CC[C@H]21)C[C@@]1(CCCc2cc(Cl)ccc21)CO3 [Example 16, (1S,3′R,6′R,7′R,8′E,11′S,12′R)-6-chloro-7′-ethoxy-12′-(2-methoxyethyl)-11′-methyl-7′-((4-(1-methylethyl)-1-piperazinyl)methyl)-3,4-dihydro-2H, 15′H-spiro[naphthalene-1,22′-[20]oxa[13]thia[1,14]diazatetracyclo[14.7.2.0-3,6˜.0˜19,24˜]pentacosa[8,16,18,24]tetraen]-15′-one 13′,13′-dioxide]  53 nM
7. CO[C@@]1(CN2CCN(C3COC3)CC2)/C=C/C[C@H](C)[C@@H](C)S(=O)(=O)NC(=O)c2ccc3c(n2)N(C[C@@H]2CC[C@H]21)C[C@@]1(CCCc2cc(Cl)ccc21)CO3 [Example 19, (1 S,3′R,6′R,7′S,8′E,11′S,12′R)-6-chloro-7′-methoxy-11′,12′-dimethyl-7′-((4-(3-oxetanyl)-1-piperazinyl)methyl)-3,4-dihydro-2H, 15′H-spiro[naphthalene-1,22′-[20]oxa[13]thia[1,14,25]triazatetracyclo[14.7.2.0-3,6˜.0˜19,24˜]pentacosa[8,16,18,24]tetraen]-15′-one 13′,13′-dioxide]  47 nM
8. COCC[C@@H]1[C@@H](C)C/C=C/[C@@](CN2CCN(C(C)C)[C@H](C)C2)(OC)[C@@H]2CC[C@H]2CN2C[C@@]3(CCCc4cc(Cl)ccc43)COc3ccc(cc32)C(=O)NS1(=O)=O [Example 12, (1S,3′R,6′R,7′R,8′E,11′S,12′R)-6-chloro-7′-methoxy-12′-(2-methoxyethyl)-11′-methyl-7′-(((3R)-3-methyl-4-(1-methylethyl)-1-piperazinyl)methyl)-3,4-dihydro-2H, 15′H-spiro[naphthalene-1,22′-[20]oxa[13]thia[1,14]diazatetracyclo[14.7.2.0-3,6˜.0˜19,24˜]pentacosa[8,16,18,24]tetraen]-15′-one 13′,13′-dioxide]  22 nM

Same assay, conditions: read-out: OPM-2 10% FBS IC50 IP; OPM-2 cells, 10% FBS, 16 h incubation

In order of falling IC50:
1. C[C@@H]1[C@@H](C)C/C=C/C(O)(CN2CCN3CCCC[C@@H]3C2)[C@@H]2CC[C@H]2CN2C[C@@]3(CCCc4cc(Cl)ccc43)COc3ccc(cc32)C(=O)NS1(=O)=O (single isomer, unassigned) [Example 242]  791 nM
2. CO[C@@]1(CN2CCN3CCCC[C@@H]3C2)/C=C/C[C@H](C)[C@@H](Cc2ccccc2)S(=O)(=O)NC(=O)c2ccc3c(c2)N(C[C@@H]2CC[C@H]21)C[C@@]1(CCCc2cc(Cl)ccc21)CO3 (single isomer, unassigned) [Example 104]  782 nM
3. CO[C@@]1(CN2CCN3CCN(C(C)=O)C[C@@H]3C2)/C=C/C[C@H](C)[C@@H](C)S(=O)(=O)NC(=O)c2ccc3c(c2)N(C[C@@H]2CC[C@H]21)C[C@@]1(CCCc2cc(Cl)ccc21)CO3 (single isomer, unassigned) [Example 225]  280 nM
4. CO[C@@]1(CN2CCN3CCN(C)C[C@@H]3C2)/C=C/C[C@H](C)[C@@H](C)S(=O)(=O)NC(=O)c2ccc3c(c2)N(C[C@@H]2CC[C@H]21)C[C@@]1(CCCc2cc(Cl)ccc21)CO3 (single isomer, unassigned) [Example 217]  192 nM
5. C[C@@H]1[C@@H](C)C/C=C/C(O)(CN2CCN3CCCC[C@@H]3C2)[C@@H]2CC[C@H]2CN2C[C@@]3(CCCc4cc(Cl)ccc43)COc3ccc(cc32)C(=O)NS1(=O)=O (single isomer, unassigned) [Example 243]  106 nM
6. CO[C@]1(CN2CCN3CCN(C(C)=O)C[C@@H]3C2)/C=C/C[C@H](C)[C@@H](C)S(=O)(=O)NC(=O)c2ccc3c(c2)N(C[C@@H]2CC[C@H]21)C[C@@]1(CCCc2cc(Cl)ccc21)CO3 (single isomer, unassigned) [Example 229]  96 nM
7. CO[C@]1(CN2CCN3CCN(C(C)=O)C[C@@H]3C2)/C=C/C[C@H](C)[C@@H](C)S(=O)(=O)NC(=O)c2ccc3c(c2)N(C[C@@H]2CC[C@H]21)C[C@@]1(CCCc2cc(Cl)ccc21)CO3 (single isomer, unassigned) [Example 230]  70 nM
8. CCO[C@]1(CN2CCN(C(C)C)[C@H](C)C2)/C=C/C[C@H](C)[C@@H](C)S(=O)(=O)NC(=O)c2ccc3c(c2)N(C[C@@H]2CC[C@H]21)C[C@@]1(CCCc2cc(Cl)ccc21)CO3 [Example 9, (1 S,3′R,6′R,7′R,8′E,11′S, 12′R)-6-CHLORO-7′-ETHOXY-11′,12′-DIMETHYL-7′-(((3R)-3-METHYL-4-(1-METHYLETHYL)-1-PIPERAZINYL)METHYL)-3,4-DIHYDRO-2H, 15′H-SPIRO[NAPHTHALENE-1,22′-[20]OXA[13]THIA[1,14]DIAZATETRACYCLO[14.7.2.0-3,6˜.0˜19,24˜]PENT ACOSA[8,16,18,24]TETRAEN]-15′-ONE 13′,13′-DIOXIDE]  50 nM
9. CO[C@@]1(CN2CCN3CCN(C(C)=O)C[C@@H]3C2)/C=C/C[C@H](C)[C@@H](C)S(=O)(=O)NC(=O)c2ccc3c(c2)N(C[C@@H]2CC[C@H]21)C[C@@]1(CCCc2cc(Cl)ccc21)CO3 (single isomer, unassigned) [Example 226]  49 nM
10. CCO[C@]1(CN2CCN(C(C)C)[C@H](C)C2)/C=C/C[C@H](C)[C@@H](CCOC)S(=O)(=O)NC(=O)c2ccc3c(c2)N(C[C@@H]2CC[C@H]21)C[C@@]1(CCCc2cc(Cl)ccc21)CO3 [Example 17, (1S,3′R,6′R,7′R,8′E,11′S,12′R)-6-chloro-7′-ethoxy-12′-(2-methoxyethyl)-11′-methyl-7′-(((3R)-3-methyl-4-(1-methylethyl)-1-piperazinyl)methyl)-3,4-dihydro-2H,15′H-spiro[naphthalene-1,22′-[20]oxa[13]thia[1,14]diazatetracyclo[14.7.2.0-3,6˜.0˜19,24˜]pentacosa[8,16,18,24]tetraen]-15′-one 13′,13′-dioxide]  34 nM
11. C[C@@H]1[C@@H](C)CCC[C@@](O)(CN2CCN3CCOC[C@@H]3C2)[C@@H]2CC[C@H]2CN2C[C@@]3(CCCc4cc(Cl)ccc43)COc3ccc(cc32)C(=O)NS1(=O)=O [Example 7, (1S,3′R,6′R,7′S,11′S,12′R)-6-CHLORO-7′-((9AS)-HEXAHYDROPYRAZINO [2,1-C][1,4]OXAZIN-8(1H)-YLMETHYL)-7′-HYDROXY-11′,12′-DIMETHYL-3,4-DIHYDRO-2H, 15′H-SPIRO[NAPHTHALENE-1,22′-[20]OXA[13]THIA[1,14]DIAZATETRACYCLO[14.7.2.0-3,6˜.0˜19,24˜]PENT ACOSA[16,18,24]TRIEN]-15′-ONE 13′,13′-DIOXIDE]  25 nM
